Data taken from patent US6790936B1, “CAI resistance proteins and uses thereof” (The United States of America as represented by the …, priority 1994, dated 2004).

What was measured:
Format in all cases: cell-based, human
CAIR-1 = assay: Northern analysis of CAIR-1 expression in A2058-20R versus parental A2058 cells; settings: A2058-20R (20 μM CAI) vs parental A2058 total RNA, compared to GAPDH housekeeping gene control
Text: The subtracted probe was first hybridized against a Northern blot of total RNA from parental A2058 cells and CAI resistant A2058-20R cells. Increased expression of a number of transcripts was seen (FIG. 1, upper left panel). Re-hybridization of the blot with radiolabeled GAPDH as a housekeeping gene confirmed the […] (FIG. 1, lower left panel).
A cDNA library was constructed from A2058-20R cells by Stratagene (La Jolla, Calif., USA). The library was probed using standard approaches (Id.) and the positive probes were plaque purified. Forty-one clones were selected and 35 were determined to be nonoverlapping by restriction digest. Fifteen were randomly selected for determination of their expression by Northern analysis. Inserts were purified by low melting point agarose gel electrophoresis and then radiolabeled with standard random primer conditions (Amersham, Little Chalfont, Bucks, United Kingdom) and hybridized with a Northern of parental (wildtype) total RNA and RNA from A2058-20R cells. […] The CAIR-1 cDNA (clone 21DBB insert) was sequenced using standard dideoxy-sequencing (SequenaseII kit) with 35S-dATP label. The cDNA sequence is shown in Seq. Id No. 1.

[1] = tested on: A2058 CAI resistant cells; assay: Culture of CAI resistant cells (A2058); settings: chronic culture under continuous CAI, 10, 20, 30 and 40 μM
Method: (§1) Low passage (passage 13) parental human melanoma cells (A2058), and human ovarian cancer cells (OVCAR3) were cultured in Dulbecco's Modified Eagles medium (DMEM) supplemented with 10% fetal calf serum (FCS) and pen/strep (penicillin and streptomycin). Over a period of 24 to 30 months, the cells were incubated with increasing concentrations of CAI starting with 0.1 μM and reaching 45 μM. The CAI, obtained from the Developmental Therapeutics Program of the National Cancer Institute, was dissolved in DMSO and aliquots were stored at −70° C. until used. The diluted CAI was added directly into the media as required. Continuous selective pressure with CAI was maintained throughout culture and was maintained throughout all experiments.
No overt differences in morphology of the A2058 CAI resistant cells was observed.

OVCAR3 cells = assay: Culture of CAI resistant cells (OVCAR3); settings: cells chronically resistant to 10 μM and 20 μM CAI
Method: as §1, with “experiments. OVCAR3 cells chronically resistant to 10 μM and 20 μM CAI were also established.” for “experiments.”

With `NC(=O)c1nnn(Cc2cc(Cl)c(C(=O)c3ccc(Cl)cc3)c(Cl)c2)c1N` [CAI, Carboxyamido-triazole] the “increased expression of CAIR-1 cDNA (clone 21DBB) in response to culture with CAI” value (CAIR-1) was 3.8 fold, the “growth rate of A2058 CAI resistant cells” value [1] was “not attenuated until the 40 μM treatment in which it decreased somewhat” and the “growth rates of OVCAR3 cells in the CAI treatments” value (OVCAR3 cells) was “slightly lower growth rates”.
